Earlier results in patent US10758479B2, “Galenical form for the administration of active ingredients by transmucous means” (priority 2006, dated 2020).
Each block holds one compound with its values, some of them ahead of it.

How the values were obtained:
[1] = nasal, per-mucous path

mean bioavailability [1]: less than 25 % of the administered dose
SMILES: C[C@]12CC[C@@H]3c4ccc(O)cc4CC[C@H]3[C@@H]1CC[C@@H]2O [estradiol]

SMILES: CN(C)C(=O)C(CCN1CCC(O)(c2ccc(Cl)cc2)CC1)(c1ccccc1)c1ccccc1 [loperamide, Loperamide]
portion of the effectively bioavailable dose (in the 2 mg administered by the digestive tract): ≤ 0.25 mg

residual bioavailability (administered via the digestive tract): less than 14 % of the administered dose
SMILES: CNS(=O)(=O)Cc1ccc2[nH]cc(CCN(C)C)c2c1 [Sumatriptan]
period of action (administered enterally): about two
